Data: PMC8767972 (Slas Discovery, 2022)

Assays:
[1] = biological target: HKU1 main protease (Human coronavirus HKU1, UniProt P0C6X2); format: biochemical, HKU1 CoV; conditions: read-out: HKU1 IC50
[2] = biological target: NL63 main protease (Human coronavirus NL63, UniProt P0C6X5); format: biochemical, NL63 CoV; conditions: read-out: NL63 IC50
Chain of NL63 main protease (P0C6X5 2940-3242 limits assumed): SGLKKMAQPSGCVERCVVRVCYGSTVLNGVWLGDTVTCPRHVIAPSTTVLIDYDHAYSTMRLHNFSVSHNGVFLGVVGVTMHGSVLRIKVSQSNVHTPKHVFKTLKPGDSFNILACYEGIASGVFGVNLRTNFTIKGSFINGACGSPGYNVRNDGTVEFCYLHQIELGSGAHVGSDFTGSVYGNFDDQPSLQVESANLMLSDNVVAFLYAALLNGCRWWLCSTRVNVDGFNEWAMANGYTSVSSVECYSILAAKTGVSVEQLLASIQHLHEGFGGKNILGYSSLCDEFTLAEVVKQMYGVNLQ

Chain of HKU1 main protease (P0C6X2 3335-3637 limits assumed): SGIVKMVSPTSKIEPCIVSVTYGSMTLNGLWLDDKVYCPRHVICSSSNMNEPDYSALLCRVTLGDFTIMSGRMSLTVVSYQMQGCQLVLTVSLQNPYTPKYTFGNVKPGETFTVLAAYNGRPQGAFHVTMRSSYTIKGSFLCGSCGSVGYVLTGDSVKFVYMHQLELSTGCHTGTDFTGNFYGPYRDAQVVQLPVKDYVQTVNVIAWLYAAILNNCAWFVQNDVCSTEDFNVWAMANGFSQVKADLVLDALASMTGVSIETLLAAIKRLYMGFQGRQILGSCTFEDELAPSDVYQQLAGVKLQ

CC(C)C[C@H](NC(=O)OCc1ccccc1)C(=O)N[C@@H](CC1CCNC1=O)C(O)S(=O)(=O)O (some centres unmarked) [GC376]
IC50 [1]: 12 nM
IC50 [2]: 52 nM
